{"source": "patent US20220304957A1", "about": "“ANTI-CANCER COMPOSITIONS AND METHODS OF USE” (Board of Supervisors of Louisiana State University and …, priority 2019, published 2022)", "key": {"[1]": {"tested_on": "LN-229 human glioblastoma cells", "details": "in vitro; cited from earlier work"}, "[2]": {"experiment": "PP1 tissue distribution after oral administration (HPLC)", "format": "in vivo, C57BL/6 mice", "procedure": "(§1) Panel A: PP1 accumulation in different tissues following oral administration of PP1 (25 mg/kg). C57BL/6 mice were treated daily for 14 days, and the levels of PP1 in the blood, liver, spleen, kidney, heart, brain and in brain tumors, were evaluated by HPLC, as previously described. Data represent average values with standard deviation (n=3). Panel B: Body weight of C57BL/6 mice treated with PP1. Mice were treated with the PP1 at doses ranging from 25 to 75 mg/kg/day administered by oral gavage. Following 7 and 14 days of daily drug administration both control (DMSO-treated) and experimental (PP1-treated) mice were weighted. Data represent average values with standard deviation (at least three mice per group were included). In Panels A and B, tumor free and tumor bearing mice were included for the body weight measurement. Panels C, D and E: Intracranial growth of GL-261-Luc cells. C57 black mice, 6-8 weeks of age were anesthetized with 4% isoflurane and secured in a stereotaxic head frame (Harvard Apparatus, Holliston Mass.). GL-261-luc cells (1×10^5 cells in 2 μl; PerkinElmer Inc.) were injected into the brain parenchyma (coordinates: 3 mm anterior to Bregma; 1.5 mm lateral to Sagital suture; 3 mm down from surface) through a burr hole in the skull using a 10 μl Hamilton syringe. Panel C: Mice with large intracranial tumors were selected using bioluminescence imaging with Xenogen IVIS 200 system. Tumor size is expressed as radiance (photons/s/cm2/sr) and was quantified with the Living Image 4.1 software according to the manufacturer's recommendations (Xenogen). Panels D and E: Pathological evaluation of intracranial tumors and tissues. Following 14 days of drug administration (control: DMSO administered daily by oral gavage; PP1 50 mg/kg administered daily by oral gavage) the animals were euthanized, and the following organs were collected: liver, kidneys, spleen, heart, intact brain and intracranial tumors. The tissues were formalin-fixed, paraffin-embedded, and the resulting thin section were stained with hematoxylin and eosin (H&E) for a routine pathological evaluation.\nDetection of PP compounds by high performance liquid chromatography (HPLC) —All HPLC data were obtained from the Agilent 1100 apparatus equipped with a line degasser, binary pump (high pressure mixer), autosampler, column thermostat and Diode Array Detector (DAD) (Agilent Technologies, Santa Clara, Calif.). The analytical column 3 μm, 4.6×150 mm (Octyl Silane C8; YMC America, Inc.), solvent A—50 mM acetic acid in water, and solvent B—acetonitrile, with isocratic flow were used to detect and quantify PP compounds in culture media, in cells, tissues and body fluids. The flow rate was set to 1 ml/min, column temperature was 20° C., and the sample volume was 5 μl. DAD wavelength was set to 285 nm. Sample preparation. Blood, cell culture media, cellular and tissue lysates, were deproteinized by adding 150 μl of acetonitrile to 150 μl of sample, mixed well and centrifuged (15 000 g, 5 min). The lysates were sonicated on ice and centrifuged (15 000 g, 5 min). Finally, 150 μl of the supernatant was mixed with the equal volume of acetonitrile, filtered through 0.22 μm centrifuge filter (Sigma) and analyzed by High Performance Liquid Chromatography (HPLC).\nAnimal studies—All described procedures involving experimental animals were performed in accordance to the IACUC protocol #3444 at LSUHSC, New Orleans. C57BL/6NHsd mice, 11-12 weeks of age (Envigo), were anesthetized with 4% isoflurane and secured in a stereotaxic head frame (Harvard Apparatus, Holliston Mass.). GL-261-luc cells (1×105) (PerkinElmer Inc.) were suspended in PBS and 2 μl aliquots were injected into the brain parenchyma (coordinates: 3 mm anterior to Bregma; 1.5 mm lateral to Sagital suture; 3 mm down from surface) through a burr hole in the skull using a 10 μl Hamilton syringe. […]"}, "[3]": {"tested_on": "U-87MG human glioblastoma cell line", "experiment": "Cell death, trypan blue, U-87MG", "details": "5-50 μM, 96 h", "description": "The percentage of cell death was calculated at 96-hour time point for all experimental conditions."}, "[4]": {"experiment": "Toxicity in mice: body weight and histopathology", "format": "in vivo, C57BL/6 mice", "details": "14 days", "procedure": "as §1\nAnimal studies—All described procedures involving experimental animals were performed in accordance to the IACUC protocol #3444 at LSUHSC, New Orleans. C57BL/6NHsd mice, 11-12 weeks of age (Envigo), were anesthetized with 4% isoflurane and secured in a stereotaxic head frame (Harvard Apparatus, Holliston Mass.). […] The resulting images were evaluated and luminescence measurements from equivalent regions of interest encompassing the entire skull were collected using Living Image 4.1 software (Xenogen). […]"}, "[5]": {"details": "mouse, in vivo; cited from earlier work"}}}
{"smiles": "CN(CCO)C(=O)C(C)(C)Oc1ccc(C(=O)c2ccc(Cl)cc2)cc1", "note": "[PP1, 2-[4-(4-chlorobenzoyl)phenoxy]-N-(2-hydroxyethyl)-N,2-dimethylpropanamide]", "values": [{"measurement": "concentration at which highly effective tumor cell death occurs", "setting": "[1]", "result": 10, "unit": "µM"}, {"measurement": "concentration at 14 days", "setting": "[2]; C57BL/6, mouse, brain tumor tissue, po, 25 mg/kg, orally administered, mice, read-out: HPLC-measured concentration in the brain tumor tissues", "result": "5 to 6", "unit": "µM"}, {"measurement": "accumulation in the liver", "setting": "[2]; oral gavage daily, 14 days", "result": "10.3 ± 4.3", "unit": "µM"}, {"measurement": "concentration in intracranial tumors", "setting": "[2]; oral gavage daily, 14 days", "result": "5.8 ± 0.7", "unit": "µM"}, {"measurement": "level in intact brains", "setting": "[2]; oral gavage daily, 14 days", "result": "4.9 ± 3.4", "unit": "µM"}, {"measurement": "level in the blood", "setting": "[2]; oral gavage daily, 14 days", "result": "3.05 ± 0.2", "unit": "µM"}, {"measurement": "level in the heart", "setting": "[2]; oral gavage daily, 14 days", "result": "6.1 ± 2.4", "unit": "µM"}, {"measurement": "level in the spleen", "setting": "[2]; oral gavage daily, 14 days", "result": "7.6 ± 3.2", "unit": "µM"}, {"measurement": "accumulation in the kidney", "setting": "[2]; oral gavage daily, 14 days, in µM", "result": "8.8+/−4.7"}, {"measurement": "in vitro cytotoxicity", "setting": "[3]", "result": "high in vitro cytotoxicity"}, {"measurement": "overall toxicity and body weight", "setting": "[4]; 25-75 mg/kg/day oral gavage, tumor-free and tumor bearing mice", "result": "did not show any signs of overall toxicity and maintained their body weight"}, {"measurement": "histology, heart, kidney and intact brain", "setting": "[4]; oral gavage daily", "result": "did not show any signs of pathology"}, {"measurement": "histology, liver", "setting": "[4]; oral gavage daily", "result": "inflammation and focal necrotic areas in the liver"}, {"measurement": "histology, spleen", "setting": "[4]; oral gavage daily", "result": "enlarged spleen with accumulation of hemosiderin"}, {"measurement": "brain penetration, concentration", "setting": "[5]", "result": 5, "unit": "µM"}, {"measurement": "estimated log BB (from experiment)", "setting": "[5]", "result": "zero"}]}
